Reference: patent US7071228B2, “Method of treating musculoskeletal and connective tissue inflammations” (priority 2002, dated 2006)

What was measured:
Type in all cases: in vivo, human
[1] = tested on: inflammatory osteoarthritis and rheumatism; test: Clinical treatment of a patient, Example 2; settings: for effect of past treatment: person, before Accutane
Procedure: (§1) Example 1 to 3 illustrate clinical effectiveness of the above described treatment method. An initial treatment and a maintenance treatment as described above were prescribed to the patients. It is noted that the patients described in the Examples were in the average weight range, therefore, an average dosage of 40 mg was used. It is noted that all patients were told to totally avoid sun exposure during the initial treatment dosage period and for the first one or two weeks after instituting the maintenance dosage because of sun sensitivity with the use of Accutane®.
A person retired Navy Chief Warrant Officer was diagnosed with inflammatory osteoarthritis and rheumatism. The symptoms included joint pains for six to ten years. Initially in 1992 the join pains affected the right hip, and the patient suffered from the hip pain while working. In 1994, the patient developed neck and left shoulder pain. […] Furthermore, the shoulder was diagnosed as a rotator cuff injury. In 1997, the patient's hands became tender when playing golf. The hand condition progressed to puffiness of fingers and a gripping problem with difficulty closing hands. The patient's blood chemistry was normal.
The patient was placed on the 13-cis retanoic acid treatment on May 1, 2002 with an initial dosage about 40 mg Accutane® daily for fourteen days, followed by a maintenance dosage of about 40 mg Accutane® twice a week. […] As a result of such a significant improvement of the physical condition, the patient's golf handicap dropped from eleven (11) to nine (9).

[2] = tested on: osteoarthritis with capsulitis; test: Clinical treatment of a patient, Example 1; settings: for benefit of earlier therapeutic treatments: before Accutane, Asprin two to five 325 mg pills per day
Procedure: as §1
A patient in generally good health had the onset of joint complaints in 1988 affecting only the hands. The main location was in the distal interphalangeal joint (IP joint) which had been fractured in 1980. Symptoms were puffiness and swelling with increasing tenderness over the years. The tenderness had become so pronounced that in 1994 they stopped shaking hands because of the pain. In addition they had progressive difficulty making a fist because of swelling and tightness of the fingers.
X-ray examination found thining of joint space and capsular swelling of the interphalangeal joints. Laboratory examination results were normal. The patient was diagnosed with osteoarthritis with capsulitis.
In April 1997 the patient started taking Accutane® (13-cis retanoid acid, Hoffmann-La Roche Inc., Nutley, N.J.) for another medical condition in an initial dosage of about 40 mg Accutane® daily for twenty one days, followed by a maintenance dosage of about 40 mg Accutane® twice a week (on Monday and Friday).

[3] = tested on: musculoskeletal and connective tissue inflammations; test: Treatment of patients with initial and maintenance dosage, general findings; settings: long term use of the low maintenance dosage
Procedure: Preferably, the treatment method further includes two treatment periods: an initial treatment, and a maintenance treatment. First, in the initial treatment, a patient administrates an initial dosage of 13-cis-retinoic acid for a period from about ten days to about five months. Thereafter, the patient administrates a lower maintenance dosage of 13-cis-retinoic acid.
The dosage is determined based on the patient's body weight. The initial dosage is in a range from about 10 mg to 80 mg 13-cis-retinoic acid daily (about 0.14 mg to about 1.1 mg per kilogram (kg) of body weight). For average men having a body weight about 160 lbs (72.6 kg), the average initial dosage is about 40 mg daily. The maintenance dosage is in a range from about 10 mg to 80 mg 13-cis-retinoic acid every three to seven days (about 0.14 mg to about 1.1 mg per kilogram (kg) of body weight). The average maintenance dosage for average men having a body weight about 160 lbs is about 40 mg every three to seven days. The dosages should be adjusted accordingly for children or those who weigh substantially less than or above the average body weight.
Furthermore, no serious adverse side effects were observed by using the described treatment. […]

osteoarthritis = test: Clinical treatment of a patient, Example 3
Procedure: as §1
A farmer, had more than a ten year history of hand pain involving fingers, and associated with swelling and tenderness of interphalangeal joints. The hand condition made their work and playing golf difficult. The patient was diagnosed with osteoarthritis.
The patient was placed on 13-cis retanoic acid treatment in April of 2001, with an initial dosage of about 40 mg Accutane® daily for twenty one days, followed by a maintenance dosage of about 40 mg Accutane® twice a week. […] The improvements were maintained during a subsequent six month continuation of the maintenance dosage.

[4] = 40 mg daily 14 days, then 40 mg twice a week
[5] = about 40 mg daily 21 days, then 40 mg twice a week

SMILES: CC(C)Cc1ccc(C(C)C(=O)O)cc1 (stereo not drawn) [Motrin, ibuprofen]
- effect of past treatment [1]: minimal effect
- benefit of earlier therapeutic treatments [2]: minimal or no benefit

SMILES: CC1=C(/C=C/C(C)=C/C=C/C(C)=C\C(=O)O)C(C)(C)CCC1 [Accutane, 13-cis-retinoic acid]
- hand puffiness and grip problems [1, 4]: no longer exist
- side effects [1, 4]: minimal side effects
- shoulder pain ([1]; about 40 mg daily 14 days, then 40 mg twice a week, after total of seven weeks, physical therapy continued): completely abated
- range of movement (shoulder) ([1]; after total of seven weeks of treatment): returned to normal
- neck and hip pains ([1]; as of August, 2002 (start May 1, 2002)): almost completely abated
- hand tenderness ([1]; if they play golf three to four days in a row): still exhibit a tinge of tenderness
- long term effect on musculoskeletal and connective tissue inflammations [3]: provides a long term control
- cervical spine tenderness [2, 5]: slow improvement
- fibro calcified peri-spinous nodules of cervical spine [2, 5]: dissolution
- range of motion (ROM), cervical spine [2, 5]: increased range of motion
- stiff and painful shoulder condition (old rotator cuff injury, right shoulder) ([2]; about 40 mg daily 21 days, then 40 mg twice a week, over the ensuing months): improvement
- blood-chemistries and hematology test results ([2]; continued maintenance dosage): remained normal
- overall physical well being / musculoskeletal infirmities ([2]; continued maintenance dosage): no longer has any musculoskeletal infirmities
- right shoulder pain during the initial treatment ([2]; initial treatment about 40 mg daily): increased right shoulder pain was noted, which then abated
- physical side effects ([2]; long-term maintenance dosage 40 mg twice a week): No physical side effects have been noted other than dry lips and skin in the early stages
- hand condition ([2]; person, about 40 mg daily for 21 days, then about 40 mg twice a week, over the ensuing months): gradual, but steady improvement
- range of movement (osteoarthritis; after ten weeks treatment): improvement
- swelling and tenderness of the fingers (osteoarthritis; after ten weeks treatment): decreased
- pre-therapy and follow-up blood tests (osteoarthritis; human, in vivo): normal
- symptoms (osteoarthritis; person, about 40 mg daily 21 days, then 40 mg twice a week, after ten weeks treatment): began to improve
- persistence of improvements (osteoarthritis; subsequent six month continuation of the maintenance dosage): maintained
- side effects (osteoarthritis; subsided after taking the maintenance dosage): no side effects other than dry lips and skin

SMILES: CC(=O)Oc1ccccc1C(=O)O [Aspirin]
- effect of past treatment [1]: minimal effect
- benefit of earlier therapeutic treatments [2]: minimal or no benefit

SMILES: COc1ccc2cc([C@H](C)C(=O)O)ccc2c1 [Naprosyn, naproxen]
- benefit of earlier therapeutic treatments [2]: minimal or no benefit
